Measured values as given in the NIST ThermoML archive (doi:10.1021/je700236c).
Where “and” joins values, the source holds several entries; their conditions need not be identical. Identical values can stand only once.

Conditions: Gas, Buoyancy - hydrostatic balance with magnetic suspension - two sinkers

CC(F)(F)F [1,1,1-trifluoroethane]
Conditions	mass density
283.15 K, 203.6 kPa	7.588 kg/m3 and 7.589 kg/m3
283.15 K, 399.9 kPa	15.605 kg/m3
283.15 K, 505.8 kPa	20.278 kg/m3 and 20.282 kg/m3
283.15 K, 605 kPa	24.935 kg/m3 and 24.932 kg/m3
283.15 K, 651.6 kPa	27.227 kg/m3
283.15 K, 651.7 kPa	27.238 kg/m3
283.15 K, 700.8 kPa	29.729 kg/m3 and 29.728 kg/m3
283.15 K, 750.8 kPa	32.363 kg/m3 and 32.361 kg/m3
283.15 K, 781.5 kPa	34.03 kg/m3
283.15 K, 781.6 kPa	34.039 kg/m3
283.15 K, 801.7 kPa	35.15 kg/m3
283.15 K, 801.8 kPa	35.164 kg/m3
283.15 K, 820.2 kPa	36.196 kg/m3
283.15 K, 820.3 kPa	36.205 kg/m3
293.15 K, 201.7 kPa	7.219 kg/m3
293.15 K, 201.8 kPa	7.222 kg/m3
293.15 K, 400.3 kPa	14.916 kg/m3 and 14.915 kg/m3
293.15 K, 599.3 kPa	23.356 kg/m3 and 23.36 kg/m3
293.15 K, 701.3 kPa	28.031 kg/m3 and 28.028 kg/m3
293.15 K, 798.2 kPa	32.729 kg/m3 and 32.732 kg/m3
293.15 K, 898.7 kPa	37.925 kg/m3 and 37.921 kg/m3
293.15 K, 951 kPa	40.774 kg/m3
293.15 K, 999.6 kPa	43.532 kg/m3
293.15 K, 1030.9 kPa	45.365 kg/m3 and 45.355 kg/m3
293.15 K, 1048.7 kPa	46.429 kg/m3
293.15 K, 1048.8 kPa	46.429 kg/m3
293.15 K, 1071 kPa	47.788 kg/m3
293.15 K, 1071.1 kPa	47.784 kg/m3
293.15 K, 1089 kPa	48.896 kg/m3 and 48.901 kg/m3
303.15 K, 200 kPa	6.895 kg/m3 and 6.903 kg/m3
303.15 K, 400.9 kPa	14.305 kg/m3 and 14.313 kg/m3
303.15 K, 600.3 kPa	22.265 kg/m3
303.15 K, 600.4 kPa	22.265 kg/m3
303.15 K, 801.6 kPa	31.034 kg/m3 and 31.031 kg/m3
303.15 K, 1001 kPa	40.662 kg/m3 and 40.666 kg/m3
303.15 K, 1099.9 kPa	45.879 kg/m3 and 45.88 kg/m3
303.15 K, 1197.3 kPa	51.364 kg/m3 and 51.363 kg/m3
303.15 K, 1249.2 kPa	54.458 kg/m3
303.15 K, 1299.5 kPa	57.578 kg/m3 and 57.581 kg/m3
303.15 K, 1340.6 kPa	60.231 kg/m3 and 60.229 kg/m3
303.15 K, 1369.8 kPa	62.181 kg/m3 and 62.183 kg/m3
303.15 K, 1401.5 kPa	64.363 kg/m3 and 64.364 kg/m3
303.15 K, 1423.7 kPa	65.925 kg/m3
303.15 K, 1423.9 kPa	65.952 kg/m3
313.15 K, 201.5 kPa	6.696 kg/m3
313.15 K, 201.8 kPa	6.718 kg/m3
313.15 K, 205.1 kPa	6.831 kg/m3 and 6.828 kg/m3
313.15 K, 206.2 kPa	6.869 kg/m3
313.15 K, 401.6 kPa	13.776 kg/m3
313.15 K, 401.7 kPa	13.775 kg/m3
313.15 K, 600.3 kPa	21.275 kg/m3 and 21.282 kg/m3
313.15 K, 800.3 kPa	29.41 kg/m3 and 29.413 kg/m3
313.15 K, 999.1 kPa	38.197 kg/m3 and 38.204 kg/m3
313.15 K, 1200.3 kPa	47.988 kg/m3 and 48.002 kg/m3
313.15 K, 1400.2 kPa	58.893 kg/m3 and 58.909 kg/m3
313.15 K, 1500.8 kPa	64.963 kg/m3 and 64.977 kg/m3
313.15 K, 1540.9 kPa	67.443 kg/m3 and 67.442 kg/m3
313.15 K, 1598 kPa	71.29 kg/m3
313.15 K, 1598.1 kPa	71.312 kg/m3
313.15 K, 1648.3 kPa	74.652 kg/m3 and 74.647 kg/m3
313.15 K, 1701.3 kPa	78.498 kg/m3 and 78.51 kg/m3
313.15 K, 1740.8 kPa	81.517 kg/m3 and 81.508 kg/m3
313.15 K, 1771.1 kPa	83.916 kg/m3 and 83.908 kg/m3
313.15 K, 1793.2 kPa	85.73 kg/m3
313.15 K, 1794.4 kPa	85.811 kg/m3

FCF [difluoromethane]
Conditions	mass density
313.15 K, 201.8 kPa	4.12 kg/m3
313.15 K, 201.9 kPa	4.121 kg/m3
313.15 K, 490.8 kPa	10.336 kg/m3 and 10.342 kg/m3
313.15 K, 791 kPa	17.275 kg/m3 and 17.277 kg/m3
313.15 K, 996.6 kPa	22.349 kg/m3 and 22.355 kg/m3
313.15 K, 1203.3 kPa	27.759 kg/m3 and 27.77 kg/m3
313.15 K, 1396.5 kPa	33.148 kg/m3 and 33.159 kg/m3
313.15 K, 1602.9 kPa	39.322 kg/m3 and 39.331 kg/m3
313.15 K, 1801.8 kPa	45.76 kg/m3
313.15 K, 1801.9 kPa	45.748 kg/m3
313.15 K, 1998.1 kPa	52.687 kg/m3 and 52.676 kg/m3
313.15 K, 2103.6 kPa	56.702 kg/m3 and 56.692 kg/m3
313.15 K, 2201.5 kPa	60.637 kg/m3 and 60.629 kg/m3
313.15 K, 2251 kPa	62.72 kg/m3 and 62.711 kg/m3
313.15 K, 2298.1 kPa	64.762 kg/m3 and 64.748 kg/m3
313.15 K, 2355.7 kPa	67.348 kg/m3
313.15 K, 2355.8 kPa	67.343 kg/m3
313.15 K, 2402.7 kPa	69.541 kg/m3
313.15 K, 2403 kPa	69.545 kg/m3
313.15 K, 2435 kPa	71.084 kg/m3
313.15 K, 2435.1 kPa	71.095 kg/m3
313.15 K, 2450.5 kPa	71.838 kg/m3
313.15 K, 2450.6 kPa	71.855 kg/m3
313.15 K, 2472 kPa	72.903 kg/m3 and 72.918 kg/m3
323.15 K, 207.9 kPa	4.101 kg/m3 and 4.103 kg/m3
323.15 K, 499.2 kPa	10.125 kg/m3 and 10.143 kg/m3 and 10.132 kg/m3
323.15 K, 801.1 kPa	16.793 kg/m3
323.15 K, 801.2 kPa	16.794 kg/m3
323.15 K, 998.3 kPa	21.387 kg/m3 and 21.393 kg/m3
323.15 K, 1095.2 kPa	23.732 kg/m3
323.15 K, 1200.3 kPa	26.337 kg/m3
323.15 K, 1200.4 kPa	26.341 kg/m3
323.15 K, 1397.4 kPa	31.424 kg/m3 and 31.416 kg/m3
323.15 K, 1590.6 kPa	36.664 kg/m3 and 36.67 kg/m3
323.15 K, 1797.2 kPa	42.644 kg/m3 and 42.658 kg/m3
323.15 K, 2004.9 kPa	49.091 kg/m3 and 49.105 kg/m3
323.15 K, 2200.6 kPa	55.637 kg/m3 and 55.653 kg/m3
323.15 K, 2402.3 kPa	62.99 kg/m3 and 62.978 kg/m3
323.15 K, 2596.1 kPa	70.738 kg/m3 and 70.733 kg/m3
323.15 K, 2699 kPa	75.19 kg/m3
323.15 K, 2699.1 kPa	75.207 kg/m3
323.15 K, 2799 kPa	79.805 kg/m3 and 79.816 kg/m3
323.15 K, 2802.9 kPa	80.005 kg/m3 and 80.017 kg/m3
323.15 K, 2900.6 kPa	84.82 kg/m3 and 84.839 kg/m3
323.15 K, 2901.2 kPa	84.882 kg/m3 and 84.872 kg/m3
323.15 K, 2947 kPa	87.258 kg/m3 and 87.244 kg/m3
323.15 K, 2960.3 kPa	87.971 kg/m3 and 87.99 kg/m3
323.15 K, 3002.2 kPa	90.24 kg/m3
323.15 K, 3002.3 kPa	90.261 kg/m3
323.15 K, 3010.2 kPa	90.716 kg/m3 and 90.73 kg/m3
323.15 K, 3041.1 kPa	92.478 kg/m3
323.15 K, 3041.2 kPa	92.495 kg/m3
323.15 K, 3074.6 kPa	94.445 kg/m3 and 94.453 kg/m3
323.15 K, 3099.5 kPa	95.942 kg/m3 and 95.952 kg/m3
323.15 K, 3125.5 kPa	97.558 kg/m3
323.15 K, 3125.6 kPa	97.549 kg/m3
323.15 K, 3134.2 kPa	98.084 kg/m3
